Experimental data published in PubChem BioAssay AID1259408 (Genetic Toxicology Data Bank (GENE-TOX), 2018).
Active and inactive are the calls of the source. No rule for the calls is given here.

Test system: GENE-TOX genotoxicity assays, various organisms and cells
Assay: GENE-TOX mutagenicity studies
Conditions: for call: Assay Type: In vivo carcinogenicity studies
[1] = Species/Cell Type: Human lymphocytes, Assay Type: Sister-chromatid exchange (SCE) in vitro, Assay Code: SCL+D, Dose Response: With dose response, Evaluation Type: Evaluation B (Post-1980)
[2] = Species/Cell Type: Saccharomyces cerevisiae, Assay Type: Mitotic recombination or gene conversion, Assay Code: YEH+, Evaluation Type: Evaluation A (Pre-1980)
[3] = Species/Cell Type: Salmonella typhimurium (one or more of the five standard strains: TA98, TA100, TA1535, TA1537, and TA1538), Assay Type: Histidine reverse gene mutation, Ames assay, Assay Code: SAL+, Evaluation Type: Evaluation A (Pre-1980)
[4] = Species/Cell Type: Chinese hamster lung (V79) cells, Assay Type: Forward gene mutation at the HPRT or ouabain locus, Assay Code: V79+, Evaluation Type: Evaluation A (Pre-1980)
[5] = Species/Cell Type: Nonhuman, Assay Code: CCG+, Evaluation Type: Evaluation A (Pre-1980)
[6] = Species/Cell Type: Human, Assay Type: Sister-chromatid exchange (SCE) in vitro, Assay Code: SC1+D, Dose Response: With dose response, Evaluation Type: Evaluation B (Post-1980)
[7] = Species/Cell Type: Salmonella typhimurium (one or more of the five standard strains: TA98, TA100, TA1535, TA1537, and TA1538), Assay Type: Histidine reverse gene mutation, Ames assay, Assay Code: SAL+*, Activation: With metabolic activation, Evaluation Type: Evaluation A (Pre-1980)
[8] = Species/Cell Type: Saccharomyces cerevisiae, Assay Type: Reverse gene mutation, Assay Code: YER+, Evaluation Type: Evaluation A (Pre-1980)

Compound: Cn1ccc(CO)c1CO
- mutagenic call [1]: active; positive

Compound: COP(=O)(OC)C(O)C(Cl)(Cl)Cl (stereo not drawn)
- mutagenic call (Species/Cell Type: Bacillus subtilis (H17 vs M45), Assay Type: Rec-assay, spot test, DNA effects (bacterial DNA repair), Assay Code: REWT, Evaluation Type: Evaluation A (Pre-1980)): no conclusion
- mutagenic call (Species/Cell Type: Drosophila melanogaster, Assay Type: Sex-linked recessive lethal gene mutation, Assay Code: SRL-, Evaluation Type: Evaluation A (Pre-1980)): inactive; negative
- mutagenic call (Species/Cell Type: Escherichia coli WP2 UVRA, Assay Type: Tryptophan reverse gene mutation, Assay Code: WPU+D, Dose Response: With dose response, Evaluation Type: Evaluation A (Pre-1980)): active; positive
- mutagenic call (Species/Cell Type: Escherichia coli polA (W3119 vs P3478), Assay Type: Rec-assay, DNA effects (bacterial DNA repair), Assay Code: RE1T, Evaluation Type: Evaluation A (Pre-1980)): no conclusion
- mutagenic call (Species/Cell Type: Human diploid fibroblasts, Assay Type: Unscheduled DNA synthesis (UDS) in vitro, DNA effects, Assay Code: UDH+/-*, Activation: With metabolic activation, Evaluation Type: Evaluation A (Pre-1980)): inactive; positive without activation, negative with activation
- mutagenic call (Species/Cell Type: Mammalian polychromatic erythrocytes, Assay Type: Micronucleus test, chromosome aberrations, Assay Code: MNTT, Evaluation Type: Evaluation A (Pre-1980)): no conclusion
- mutagenic call (Species/Cell Type: Nonhuman, Assay Type: Sister-chromatid exchange (SCE) in vitro, Assay Code: SC2+D*, Activation: With metabolic activation, Dose Response: With dose response, Evaluation Type: Evaluation B (Post-1980)): active; positive
- mutagenic call [2]: active; positive
- mutagenic call [3]: active; positive
- mutagenic call (Species/Cell Type: Salmonella typhimurium, Assay Type: Forward and reverse gene mutation, body fluid assay, Assay Code: BFU+, Evaluation Type: Evaluation A (Pre-1980)): active; positive

Compound: CN(C)CC/C=C1/c2ccccc2Sc2ccc(Cl)cc21
- mutagenic call (Species/Cell Type: Nonhuman, Assay Type: Sister-chromatid exchange (SCE) in vitro, Assay Code: SC2+D, Dose Response: With dose response, Evaluation Type: Evaluation A (Pre-1980)): active; positive

Compound: CC1CCOS1(=O)=O (stereo not drawn)
- mutagenic call (Species/Cell Type: Schizosaccharomyces pombe, Assay Type: Reverse gene mutation, Assay Code: YEZ+, Evaluation Type: Evaluation A (Pre-1980)): active; positive

Compound: CC(C(=O)O)c1ccc(N2CC=CC2)c(Cl)c1 (stereo not drawn)
- mutagenic call (Species/Cell Type: Human lymphocytes, Assay Type: Sister-chromatid exchange (SCE) in vivo, Assay Code: SCY+, Evaluation Type: Evaluation B (Post-1980)): active; positive

Compound: O[C@@H]1c2ccc3cc4ccccc4cc3c2[C@@H]2OC2[C@@H]1O (stereo partly drawn)
- mutagenic call [4]: active; positive

Compound: CCSCCC(N)C(=O)O (stereo not drawn)
- mutagenic call (Species/Cell Type: Neurospora crassa, Assay Type: Aneuploidy, chromosome aberrations, Assay Code: NEN-, Evaluation Type: Evaluation A (Pre-1980)): inactive; negative
- call [5]: active; positive
- mutagenic call (Species/Cell Type: Nonhuman, Assay Type: Sister-chromatid exchange (SCE) in vitro, Assay Code: SC2+, Evaluation Type: Evaluation B (Post-1980)): active; positive

Compound: CCN1CC[C@@H]2[C@@H](c3ccc(C)cc3)c3cc(C)ccc3[C@@H]2C1
- mutagenic call (Species/Cell Type: Mouse, Sex: Male, Assay Type: Sperm morphology, Assay Code: SPI-, Evaluation Type: Evaluation A (Pre-1980)): inactive; negative
- mutagenic call (Species/Cell Type: Rodents, Sex: Male, Assay Type: Dominant lethal test, Assay Code: DLT-, Evaluation Type: Evaluation A (Pre-1980)): inactive; negative
- mutagenic call (Species/Cell Type: Salmonella typhimurium (one or more of the five standard strains: TA98, TA100, TA1535, TA1537, and TA1538), Assay Type: Histidine reverse gene mutation, Ames assay, Assay Code: SALT, Evaluation Type: Evaluation A (Pre-1980)): no conclusion

Compound: COc1cc(C=O)ccc1O
- mutagenic call [1]: active; positive
- mutagenic call [6]: active; positive

Compound: Cc1ccc(C)cc1
- mutagenic call (Species/Cell Type: Mammalian polychromatic erythrocytes, Assay Type: Micronucleus test, chromosome aberrations, Assay Code: MNTT, Evaluation Type: Evaluation B (Post-1980)): no conclusion

Compound: O=NN1CCCC1
- mutagenic call [4]: active; positive
- call [5]: active; positive
- mutagenic call (Species/Cell Type: Nonhuman, Assay Type: Sister-chromatid exchange (SCE) in vivo, Assay Code: SC3+, Evaluation Type: Evaluation B (Post-1980)): active; positive
- mutagenic call (Species/Cell Type: Rat primary hepatocytes, Assay Type: Unscheduled DNA synthesis (UDS) in vitro, DNA effects, Assay Code: UDP+D, Dose Response: With dose response, Evaluation Type: Evaluation A (Pre-1980)): active; positive
- mutagenic call [7]: active; positive

Compound: ClC(Cl)=C(Cl)Cl
- mutagenic call (Species/Cell Type: Fischer rat embryo (RLV/1706) cells, Assay Type: Cell transformation, viral enhanced, Assay Code: CTR+, Evaluation Type: Evaluation A (Pre-1980)): active; positive
- call (Species/Cell Type: Nonhuman, Assay Code: CCG+L, Evaluation Type: Evaluation A (Pre-1980)): active; positive
- mutagenic call (Species/Cell Type: Saccharomyces cerevisiae, Assay Type: Mitotic recombination or gene conversion, Assay Code: YEC+, Evaluation Type: Evaluation A (Pre-1980)): active; positive
- mutagenic call [2]: active; positive
- mutagenic call [8]: active; positive
- mutagenic call (Species/Cell Type: Syrian hamster embryo (SA7/SHE) cells, Assay Type: Cell transformation, viral enhanced, Assay Code: CT7-, Evaluation Type: Evaluation A (Pre-1980)): inactive; negative

Compound: O=[N+]([O-])C1c2ccccc2-c2ccccc21
- mutagenic call (Species/Cell Type: Escherichia coli WP2 UVRA, Assay Type: Tryptophan reverse gene mutation, Assay Code: WPU+, Evaluation Type: Evaluation A (Pre-1980)): active; positive

Compound: CN(C)CCOc1ccc2c(c1)CC/C(=C\c1ncc([N+](=O)[O-])n1C)C2=O
- mutagenic call (Species/Cell Type: Neurospora crassa, Assay Type: Forward gene mutation, Assay Code: NEF+, Evaluation Type: Evaluation A (Pre-1980)): active; positive
- mutagenic call (Species/Cell Type: Neurospora crassa, Assay Type: Reverse gene mutation, Assay Code: NER+, Evaluation Type: Evaluation A (Pre-1980)): active; positive

Compound: O=[N+]([O-])c1cccc(O)c1
- mutagenic call (Species/Cell Type: Allium cepa, Assay Type: Chromosome aberrations, Assay Code: ALC-, Evaluation Type: Evaluation A (Pre-1980)): inactive; negative

Compound: NC1CCSC1=O (stereo not drawn)
- mutagenic call (Species/Cell Type: Human lymphocytes, Assay Type: Sister-chromatid exchange (SCE) in vitro, Assay Code: SCLT, Evaluation Type: Evaluation B (Post-1980)): no conclusion
- mutagenic call (Species/Cell Type: Human, Assay Type: Sister-chromatid exchange (SCE) in vitro, Assay Code: SC1T, Evaluation Type: Evaluation B (Post-1980)): no conclusion

Compound: ClCCNCCCNc1c2ccccc2nc2ccccc12
- mutagenic call (Species/Cell Type: Chinese hamster ovary (CHO) cells, Assay Type: Forward gene mutation at the HPRT locus, Assay Code: CHO+, Evaluation Type: Evaluation B (Post-1980)): active; positive

Compound: CCNc1nc(NC(C)(C)C)nc(OC)n1
- mutagenic call (Species/Cell Type: Saccharomyces cerevisiae, Assay Type: Mitotic recombination or gene conversion, Assay Code: YEC-, Evaluation Type: Evaluation A (Pre-1980)): inactive; negative

Compound: COc1cc2ccc(=O)oc2cc1O
- mutagenic call (Species/Cell Type: Allium cepa, Assay Type: Chromosome aberrations, Assay Code: ALC+D, Dose Response: With dose response, Evaluation Type: Evaluation A (Pre-1980)): active; positive

Compound: CCN(CCCO)N=O
- mutagenic call [7]: active; positive

Compound: Nc1cccc2cccnc12
- mutagenic call (Species/Cell Type: Drosophila melanogaster, Assay Type: Sex-linked recessive lethal gene mutation, Assay Code: SRLT, Evaluation Type: Evaluation A (Pre-1980)): no conclusion
- mutagenic call (Species/Cell Type: Saccharomyces cerevisiae, Assay Type: Forward gene mutation, Assay Code: YEF-*, Activation: With metabolic activation, Evaluation Type: Evaluation A (Pre-1980)): inactive; negative
- mutagenic call (Species/Cell Type: Saccharomyces cerevisiae, Assay Type: Mitotic recombination or gene conversion, Assay Code: YEC-*, Activation: With metabolic activation, Evaluation Type: Evaluation A (Pre-1980)): inactive; negative
- mutagenic call (Species/Cell Type: Saccharomyces cerevisiae, Assay Type: Mitotic recombination or gene conversion, Assay Code: YEH-*, Activation: With metabolic activation, Evaluation Type: Evaluation A (Pre-1980)): inactive; negative
- mutagenic call [8]: active; positive
- mutagenic call [3]: active; positive

Compound: CC[C@H]1OC(=O)[C@H](C)[C@@H](O[C@H]2C[C@@](C)(OC)[C@@H](O)[C@H](C)O2)[C@H](C)[C@@H](O[C@@H]2O[C@H](C)C[C@H](N(C)C)[C@H]2O)[C@](C)(O)C[C@@H](C)C(=O)[C@H](C)[C@@H](O)[C@]1(C)O
- mutagenic call (Species/Cell Type: Escherichia coli polA (W3119 vs P3478), Assay Type: Rec-assay, DNA effects (bacterial DNA repair), Assay Code: RE1-, Evaluation Type: Evaluation A (Pre-1980)): inactive; negative

Compound: c1ccc2c(C3CO3)c3ccccc3cc2c1 (stereo not drawn)
- mutagenic call [3]: active; positive

Compound: CS(C)=O.CS(C)=O.CS(C)=O.CS(C)=O.[Cl][Ru][Cl]
- mutagenic call [3]: active; positive

Compound: c1ccc2c(c1)cc1c3c2ccc2cccc(c23)C2OC12 (stereo not drawn)
- mutagenic call [4]: active; positive
- mutagenic call (Species/Cell Type: Human diploid fibroblasts, Assay Type: Unscheduled DNA synthesis (UDS) in vitro, DNA effects, Assay Code: UDH+, Evaluation Type: Evaluation A (Pre-1980)): active; positive
- mutagenic call [6]: active; positive
- mutagenic call (Species/Cell Type: Mouse prostate cells, Assay Type: Cell transformation, Assay Code: CTM+, Evaluation Type: Evaluation A (Pre-1980)): active; positive
- call (Species/Cell Type: Nonhuman, Assay Code: CCGT, Evaluation Type: Evaluation A (Pre-1980)): no conclusion
- mutagenic call (Species/Cell Type: Nonhuman, Assay Type: Sister-chromatid exchange (SCE) in vitro, Assay Code: SC2+D, Dose Response: With dose response, Evaluation Type: Evaluation B (Post-1980)): active; positive
- mutagenic call [2]: active; positive
- mutagenic call [3]: active; positive
- mutagenic call (Species/Cell Type: Syrian hamster embryo (SHE) cells, Assay Type: Cell transformation, clonal assay, Assay Code: CTC+, Evaluation Type: Evaluation A (Pre-1980)): active; positive
